Test results reported in PubChem BioAssay (NCI).
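Each compound was tested at five concentrations against cells in 96-well plates for 48 hours. GI50 is the concentration that inhibits growth by half. TGI is the concentration that stops growth completely.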

What was measured:
Assay in all cases: growth of human tumour cells (NCI), 48 h; in the data active = GI50 below about 0.43 µM; inactive = the rest
TK-10 renal = tested on: TK-10 renal
OVCAR-8 ovarian = tested on: OVCAR-8 ovarian
DU-145 prostate = tested on: DU-145 prostate
COLO 205 colon = tested on: COLO 205 colon
UACC-62 melanoma = tested on: UACC-62 melanoma
ACHN renal = tested on: ACHN renal
SN12C renal = tested on: SN12C renal
LOX IMVI melanoma = tested on: LOX IMVI melanoma
UO-31 renal = tested on: UO-31 renal
BT-549 breast = tested on: BT-549 breast
IGROV1 ovarian = tested on: IGROV1 ovarian
HCT-116 colon = tested on: HCT-116 colon
HOP-62 NSCLC = tested on: HOP-62 NSCLC
OVCAR-4 ovarian = tested on: OVCAR-4 ovarian
KM12 colon = tested on: KM12 colon
SF-268 CNS = tested on: SF-268 CNS
M14 melanoma = tested on: M14 melanoma
MCF7 breast = tested on: MCF7 breast
HS 578T breast = tested on: HS 578T breast
OVCAR-3 ovarian = tested on: OVCAR-3 ovarian
K-562 leukemia = tested on: K-562 leukemia
HCC-2998 colon = tested on: HCC-2998 colon
SF-295 CNS = tested on: SF-295 CNS
MDA-MB-231 breast = tested on: MDA-MB-231 breast
MDA-MB-435 = tested on: MDA-MB-435
SK-MEL-28 melanoma = tested on: SK-MEL-28 melanoma
SK-OV-3 ovarian = tested on: SK-OV-3 ovarian
PC-3 prostate = tested on: PC-3 prostate
MALME-3M melanoma = tested on: MALME-3M melanoma
HOP-92 NSCLC = tested on: HOP-92 NSCLC
SF-539 CNS = tested on: SF-539 CNS
NCI-H522 lung = tested on: NCI-H522 lung
HL-60(TB) leukemia = tested on: HL-60(TB) leukemia
SR leukemia = tested on: SR leukemia
MOLT-4 leukemia = tested on: MOLT-4 leukemia
A498 renal = tested on: A498 renal
NCI-H460 lung = tested on: NCI-H460 lung
HCT-15 colon = tested on: HCT-15 colon
NCI/ADR-RES ovarian = tested on: NCI/ADR-RES ovarian
OVCAR-5 ovarian = tested on: OVCAR-5 ovarian
HT29 colon = tested on: HT29 colon
SNB-75 CNS = tested on: SNB-75 CNS
SNB-19 CNS = tested on: SNB-19 CNS
SW-620 colon = tested on: SW-620 colon
RPMI-8226 leukemia = tested on: RPMI-8226 leukemia
T-47D breast = tested on: T-47D breast
UACC-257 melanoma = tested on: UACC-257 melanoma
RXF 393 renal = tested on: RXF 393 renal
U251 CNS = tested on: U251 CNS
CCRF-CEM leukemia = tested on: CCRF-CEM leukemia
A549 NSCLC = tested on: A549 NSCLC
SK-MEL-2 melanoma = tested on: SK-MEL-2 melanoma
786-0 renal = tested on: 786-0 renal
NCI-H23 lung = tested on: NCI-H23 lung
CAKI-1 renal = tested on: CAKI-1 renal
SK-MEL-5 melanoma = tested on: SK-MEL-5 melanoma
NCI-H226 lung = tested on: NCI-H226 lung

COc1cc[nH]c1/C=C1\C(=O)Nc2ccc(F)c(I)c21
> 25 µM: TGI (TK-10 renal) | TGI (OVCAR-8 ovarian) | TGI (DU-145 prostate) | TGI (COLO 205 colon) | TGI (UACC-62 melanoma) | TGI (ACHN renal) | TGI (SN12C renal) | TGI (LOX IMVI melanoma) | TGI (UO-31 renal) | TGI (BT-549 breast) | TGI (IGROV1 ovarian) | TGI (HCT-116 colon) | TGI (HOP-62 NSCLC) | TGI (OVCAR-4 ovarian) | TGI (KM12 colon) | TGI (SF-268 CNS) | TGI (M14 melanoma) | TGI (MCF7 breast) | TGI (HS 578T breast) | TGI (OVCAR-3 ovarian) | TGI (K-562 leukemia) | TGI (HCC-2998 colon) | TGI (SF-295 CNS) | TGI (MDA-MB-231 breast) | TGI (MDA-MB-435) | TGI (SK-MEL-28 melanoma) | TGI (SK-OV-3 ovarian) | TGI (PC-3 prostate) | TGI (MALME-3M melanoma) | TGI (HOP-92 NSCLC) | TGI (SF-539 CNS) | TGI (NCI-H522 lung) | TGI (HL-60(TB) leukemia) | TGI (SR leukemia) | TGI (MOLT-4 leukemia) | TGI (A498 renal) | TGI (NCI-H460 lung) | TGI (HCT-15 colon) | TGI (NCI/ADR-RES ovarian) | TGI (OVCAR-5 ovarian) | TGI (HT29 colon) | TGI (SNB-75 CNS) | TGI (SNB-19 CNS) | TGI (SW-620 colon) | TGI (RPMI-8226 leukemia) | TGI (T-47D breast) | TGI (UACC-257 melanoma) | TGI (RXF 393 renal) | TGI (U251 CNS) | TGI (CCRF-CEM leukemia) | TGI (A549 NSCLC) | TGI (SK-MEL-2 melanoma) | TGI (786-0 renal) | TGI (NCI-H23 lung) | TGI (CAKI-1 renal) | TGI (SK-MEL-5 melanoma) | TGI (NCI-H226 lung)
inactive: GI50 (TK-10 renal) > 25 µM | GI50 (OVCAR-8 ovarian) > 25 µM | GI50 (DU-145 prostate) > 25 µM | GI50 (COLO 205 colon) > 25 µM | GI50 (UACC-62 melanoma) > 25 µM | GI50 (ACHN renal) > 25 µM | GI50 (SN12C renal) > 25 µM | GI50 (LOX IMVI melanoma) > 25 µM | GI50 (UO-31 renal) > 25 µM | GI50 (BT-549 breast) > 25 µM | GI50 (IGROV1 ovarian) > 25 µM | GI50 (HCT-116 colon) > 25 µM | GI50 (HOP-62 NSCLC) > 25 µM | GI50 (OVCAR-4 ovarian) > 25 µM | GI50 (KM12 colon) 1.25 µM | GI50 (SF-268 CNS) > 25 µM | GI50 (M14 melanoma) > 25 µM | GI50 (MCF7 breast) > 25 µM | GI50 (HS 578T breast) > 25 µM | GI50 (OVCAR-3 ovarian) > 25 µM | GI50 (K-562 leukemia) > 25 µM | GI50 (HCC-2998 colon) > 25 µM | GI50 (SF-295 CNS) > 25 µM | GI50 (MDA-MB-231 breast) > 25 µM | GI50 (MDA-MB-435) > 25 µM | GI50 (SK-MEL-28 melanoma) > 25 µM | GI50 (SK-OV-3 ovarian) > 25 µM | GI50 (PC-3 prostate) > 25 µM | GI50 (MALME-3M melanoma) > 25 µM | GI50 (HOP-92 NSCLC) > 25 µM | GI50 (SF-539 CNS) > 25 µM | GI50 (NCI-H522 lung) > 25 µM | GI50 (HL-60(TB) leukemia) > 25 µM | GI50 (SR leukemia) > 25 µM | GI50 (MOLT-4 leukemia) > 25 µM | GI50 (A498 renal) > 25 µM | GI50 (NCI-H460 lung) > 25 µM | GI50 (HCT-15 colon) > 25 µM | GI50 (NCI/ADR-RES ovarian) > 25 µM | GI50 (OVCAR-5 ovarian) > 25 µM | GI50 (HT29 colon) > 25 µM | GI50 (SNB-75 CNS) > 25 µM | GI50 (SNB-19 CNS) > 25 µM | GI50 (SW-620 colon) > 25 µM | GI50 (RPMI-8226 leukemia) > 25 µM | GI50 (T-47D breast) > 25 µM | GI50 (UACC-257 melanoma) > 25 µM | GI50 (RXF 393 renal) > 25 µM | GI50 (U251 CNS) > 25 µM | GI50 (CCRF-CEM leukemia) > 25 µM | GI50 (A549 NSCLC) > 25 µM | GI50 (SK-MEL-2 melanoma) > 25 µM | GI50 (786-0 renal) > 25 µM | GI50 (NCI-H23 lung) > 25 µM | GI50 (CAKI-1 renal) 0.557 µM | GI50 (SK-MEL-5 melanoma) > 25 µM | GI50 (NCI-H226 lung) > 25 µM
